The results in this text go back to US10927078B2, “Modulators of indoleamine 2,3-dioxygenase” (GLAXOSMITHKLINE INTELLECTUAL PROPERTY DEVELOPMENT LIMITED, priority 2017, dated 2021).

For one experiment, the target named is indoleamine 2, 3-dioxygenase (IDO1) (Homo sapiens, UniProt P14902). As to the kind of experiment: PBMC IDO1 assay (kynurenine via mass spectrometry). It is filed as cell-based.
Chain of indoleamine 2, 3-dioxygenase (IDO1) (P14902 whole entry): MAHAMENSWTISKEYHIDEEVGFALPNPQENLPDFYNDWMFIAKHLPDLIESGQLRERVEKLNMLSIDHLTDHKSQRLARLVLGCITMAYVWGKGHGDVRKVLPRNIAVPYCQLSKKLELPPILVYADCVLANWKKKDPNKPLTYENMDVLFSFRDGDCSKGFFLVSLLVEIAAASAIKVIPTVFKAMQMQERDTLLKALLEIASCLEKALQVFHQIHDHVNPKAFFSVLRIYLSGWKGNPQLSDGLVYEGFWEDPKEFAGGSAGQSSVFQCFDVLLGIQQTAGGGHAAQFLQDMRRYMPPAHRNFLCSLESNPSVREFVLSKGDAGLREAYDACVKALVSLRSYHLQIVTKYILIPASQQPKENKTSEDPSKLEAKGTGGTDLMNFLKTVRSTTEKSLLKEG
Details: not given
As to the method:
Compounds of the present invention were tested via high-throughput cellular assays utilizing detection of kynurenine via mass spectrometry and cytotoxicity as end-points. For the mass spectrometry and cytotoxicity assays, human peripheral blood mononuclear cells (PBMC) (PB003F; AllCells®, Alameda, Calif.) were stimulated with human interferon-γ (IFN-γ) (Sigma-Aldrich Corporation, St. Louis, Mo.) and lipopolysaccharide from Salmonella minnesota (LPS) (Invivogen, San Diego, Calif.) to induce the expression of indoleamine 2, 3-dioxygenase (IDO1). Compounds with IDO1 inhibitory properties decreased the amount of kynurenine produced by the cells via the tryptophan catabolic pathway. Cellular toxicity due to the effect of compound treatment was measured using CellTiter-Glo® reagent (CTG) (Promega Corporation, Madison, Wis.), which is based on luminescent detection of ATP, an indicator of metabolically active cells.
In preparation for the assays, test compounds were serially diluted 3-fold in DMSO from a typical top concentration of 5 mM and plated at 0.5 μL in 384-well, polystyrene, clear bottom, tissue culture treated plates with lids (Greiner Bio-One, Kremsmünster, Austria) to generate 11-point dose response curves. Low control wells (0% kynurenine or 100% cytotoxicity) contained either 0.5 μL of DMSO in the presence of unstimulated (-IFN-γ/-LPS) PBMCs for the mass spectrometry assay or 0.5 μL of DMSO in the absence of cells for the cytotoxicity assay, and high control wells (100% kynurenine or 0% cytotoxicity) contained 0.5 μL of DMSO in the presence of stimulated (+IFN-γ/+LPS) PBMCs for both the mass spectrometry and cytotoxicity assays.
Frozen stocks of PBMCs were washed and recovered in RPMI 1640 medium (Thermo Fisher Scientific, Inc., Waltham, Mass.) supplemented with 10% v/v heat-inactivated fetal bovine serum (FBS) (Thermo Fisher Scientific, Inc., Waltham, Mass.), and 1× penicillin-streptomycin antibiotic solution (Thermo Fisher Scientific, Inc., Waltham, Mass.). The cells were diluted to 1,000,000 cells/mL in the supplemented RPMI 1640 medium. 50 μL of either the cell suspension, for the mass spectrometry assay, or medium alone, for the cytotoxicity assay, were added to the low control wells, on the previously prepared 384-well compound plates, resulting in 50,000 cells/well or 0 cells/well respectively. IFN-γ and LPS were added to the remaining cell suspension at final concentrations of 100 ng/ml and 50 ng/ml respectively, and 50 μL of the stimulated cells were added to all remaining wells on the 384-well compound plates. The plates, with lids, were then placed in a 37° C., 5% CO2 humidified incubator for 2 days.
Following incubation, the 384-well plates were removed from the incubator and allowed to equilibrate to room temperature for 30 minutes. For the cytotoxicity assay, CellTiter-Glo® was prepared according to the manufacturer's instructions, and 40 μL were added to each plate well. After a twenty minute incubation at room temperature, luminescence was read on an EnVision® Multilabel Reader (PerkinElmer Inc., Waltham, Mass.). For the mass spectrometry assay, 10 μL of supernatant from each well of the compound-treated plates were added to 40 μL of acetonitrile, containing 10 μM of an internal standard for normalization, in 384-well, polypropylene, V-bottom plates (Greiner Bio-One, Kremsmünster, Austria) to extract the organic analytes. Following centrifugation at 2000 rpm for 10 minutes, 10 μL from each well of the acetonitrile extraction plates were added to 90 μL of sterile, distilled H2O in 384-well, polypropylene, V-bottom plates for analysis of kynurenine and the internal standard on the RapidFire 300 (Agilent Technologies, Santa Clara, Calif.) and 4000 QTRAP MS (SCIEX, Framingham, Mass.). MS data were integrated using Agilent Technologies' RapidFire Integrator software, and data were normalized for analysis as a ratio of kynurenine to the internal standard. […]
`Cc1ncccc1OC(=O)N1CCC([C@@H](CC(C)C)NC(=O)c2ccc(Cl)cc2)CC1` [Example 104, (R)-2-methylpyridin-3-yl 4-(1-(4-chlorobenzamido)-3-methylbutyl)piperidine-1-carboxylate] showed an IC50 of 1.26 nM.

For `O=C(N[C@H](c1ccccc1)C1CCN(C(=O)Oc2cccnc2F)CC1)c1ccc(Cl)cc1` [Example 31, 2-fluoropyridin-3-yl 4-[(S)-[(4-chlorophenyl)formamido](phenyl)methyl]piperidine-1-carboxylate], the IC50 was 5.01 nM.

Turning to `COCCC[C@@H](NC(=O)c1ccc(F)cc1)C1CCN(C(=O)Oc2cccnc2F)CC1` [Example 76, 2-fluoropyridin-3-yl 4-[(1R)-1-[(4-fluorophenyl)formamido]-4-methoxybutyl]piperidine-1-carboxylate], the IC50 is 158 nM.

The same experiment, now with this note: human PBMC stimulated with IFN-γ and LPS, 2 days, kynurenine by mass spectrometry; recorded as pIC50; read-out: PBMC PXC50_ (converted).
As to `CC(C)CC(NC(=O)c1ccc(F)cc1)C1CCN(C(=O)OCc2ccccc2)CC1` (stereo not drawn) [Example 62, benzyl 4-{1-[(4-fluorophenyl)formamido]-3-methylbutyl}piperidine-1-carboxylate], the IC50 was 63.1 nM.

For `Cc1ccc(C(=O)N[C@H](C2CC2)C2CCN(C(=O)Oc3ccnc(C)c3C)CC2)s1` [Example 32, 2,3-dimethylpyridin-4-yl 4-[(R)-cyclopropyl[(5-methylthiophen-2-yl)formamido]methyl]piperidine-1-carboxylate], the IC50 is 5.01 nM.

As for `CC(C)CC(NC(=O)c1ccc(Cl)cc1)C1CCN(C(=O)Oc2ccccc2)CC1` (stereo not drawn) [Example 26, phenyl 4-{1-[(4-chlorophenyl)formamido]-3-methylbutyl}piperidine-1-carboxylate], the IC50 was 5.01 nM.

Consider `O=C(NC(C1CC1)C1CCN(C(=O)Oc2ccccc2)CC1)c1ccc(Cl)s1` (stereo not drawn) [Example 46, phenyl 4-{[(5-chlorothiophen-2-yl)formamido](cyclopropyl)methyl}piperidine-1-carboxylate], for which the IC50 is 10 nM.

Consider `CC(C)CC(NC(=O)c1ccc(F)cc1)C1CCN(C(=O)Oc2ccnc(F)c2F)CC1` (stereo not drawn) [Example 48, 2,3-difluoropyridin-4-yl 4-{1-[(4-fluorophenyl)formamido]-3-methylbutyl}piperidine-1-carboxylate], for which the IC50 is 10 nM.

With `Cc1cccc(OC(=O)N2CCC(C(CC(C)C)NC(=O)c3ccc(F)cc3)CC2)c1F` (stereo not drawn) [Example 28, 2-fluoro-3-methylphenyl 4-{1-[(4-fluorophenyl)formamido]-3-methylbutyl}piperidine-1-carboxylate], the IC50 was 5.01 nM.

As to `Cc1c(F)cccc1OC(=O)N1CCC([C@@H](C)NC(=O)c2ccccc2)CC1` [Example 56, 3-fluoro-2-methylphenyl 4-[(1R)-1-(phenylformamido)ethyl]piperidine-1-carboxylate], the IC50 was 25.1 nM.

As to `O=C(NC(c1ccncc1)C1CCN(C(=O)Oc2ccccn2)CC1)c1ccc(F)cc1` (stereo not drawn) [Example 96, pyridin-2-yl 4-{[(4-fluorophenyl)formamido](pyridin-4-yl)methyl}piperidine-1-carboxylate], the IC50 was 1260 nM.

On to `CC(C)C[C@H](NC(=O)c1ccc(Cl)cc1)C1CCN(C(=O)Oc2ccccc2)CC1` [Example 67, phenyl 4-[(1S)-1-[(4-chlorophenyl)formamido]-3-methylbutyl]piperidine-1-carboxylate], for which the IC50 is 100 nM.

As for `COc1cc(OC(=O)N2CCC(C(NC(=O)c3ccc(F)cc3)c3ccncc3)CC2)ccn1` (stereo not drawn) [Example 93, 2-methoxpyridin-4-yl 4-{[(4-fluorophenyl)formamido](pyridin-4-yl)methyl}piperidine-1-carboxylate], the IC50 is 794 nM.

For `CC(C)OCC(NC(=O)c1ccc(F)cc1)C1CCN(C(=O)Oc2ccccc2)CC1` (stereo not drawn) [Example 82, phenyl 4-{1-[(4-fluorophenyl)formamido]-2-(propan-2-yloxy)ethyl}piperidine-1-carboxylate], the IC50 was 398 nM.

As to `Cc1c(OC(=O)N2CCC(C(CC(C)C)NC(=O)c3ccc(F)cc3)CC2)ccnc1F` (stereo not drawn) [Example 33, 2-fluoro-3-methylpyridin-4-yl 4-{1-[(4-fluorophenyl)formamido]-3-methylbutyl}piperidine-1-carboxylate], the IC50 is 6.31 nM.

In the case of `O=C(NC(C1CC1)C1CCN(C(=O)Oc2ccccc2)CC1)c1ccc(F)cc1` (stereo not drawn) [Example 66, phenyl 4-{cyclopropyl[(4-fluorophenyl)formamido]methyl}piperidine-1-carboxylate], the IC50 was 100 nM.

With `O=C(NC(c1ccccc1)C1CCN(C(=O)Oc2ccccc2)CC1)c1ccccc1` (stereo not drawn) [Example 43, phenyl 4-[phenyl(phenylformamido)methyl]piperidine-1-carboxylate], the IC50 is 10 nM.

For the molecule `CC(C)CC(NC(=O)c1ccc(Cl)cc1)C1CCN(C(=O)OCc2nccs2)CC1` (stereo not drawn) [Example 64, (1,3-thiazol-2-yl)methyl 4-{1-[(4-chlorophenyl)formamido]-3-methylbutyl}piperidine-1-carboxylate], the IC50 was 79.4 nM.

`Cc1nccc(OC(=O)N2CCC([C@H](NC(=O)c3ccc(Cl)s3)c3ccccc3)CC2)c1C` [Example 1, (S)-2,3-dimethylpyridin-4-yl 4-((5-chlorothiophene-2-carboxamido)(phenyl)methyl)piperidine-1-carboxylate]: the IC50 was 0.631 nM.

In the case of `CC(C)C[C@@H](NC(=O)c1ccccc1)C1CCN(C(=O)Oc2ccccc2)CC1` [Example 25, phenyl 4-[(1R)-3-methyl-1-(phenylformamido)butyl]piperidine-1-carboxylate], the IC50 is 5.01 nM.

For `O=C(NC(c1ccncc1)C1CCN(C(=O)Oc2ccncc2)CC1)c1ccc(F)cc1` (stereo not drawn) [Example 94, pyridin-4-yl 4-{[(4-fluorophenyl)formamido](pyridin-4-yl)methyl}piperidine-1-carboxylate], the IC50 was 1000 nM.

Take `COc1c(F)cccc1OC(=O)N1CCC(C(CC(C)C)NC(=O)c2ccc(F)cc2)CC1` (stereo not drawn) [Example 13, 3-fluoro-2-methoxyphenyl 4-{1-[(4-fluorophenyl)formamido]-3-methylbutyl}piperidine-1-carboxylate]: the IC50 is 2.51 nM.

`Cc1nccc(OC(=O)N2CCC(C(CC(C)C)NC(=O)c3ccc(F)cc3)CC2)c1C` (stereo not drawn) [Example 44, 2,3-dimethylpyridin-4-yl 4-{1-[(4-fluorophenyl)formamido]-3-methylbutyl}piperidine-1-carboxylate]: the IC50 was 10 nM.

Turning to `O=C(NC(C1CC1)C1CCN(C(=O)Oc2ccnc(F)c2)CC1)c1ccc(F)cc1` (stereo not drawn) [Example 71, 2-fluoropyridin-4-yl 4-{cyclopropyl[(4-fluorophenyl)formamido]methyl}piperidine-1-carboxylate], the IC50 is 158 nM.

Consider `Cc1cccc(OC(=O)N2CCC(C(CC(C)C)NC(=O)c3ccc(F)cc3)CC2)c1C` (stereo not drawn) [Example 40, 2,3-dimethylphenyl 4-{1-[(4-fluorophenyl)formamido]-3-methylbutyl}piperidine-1-carboxylate], for which the IC50 is 7.94 nM.

In the case of `NC(=O)c1ccc(C(=O)NC(c2ccccc2)C2CCN(C(=O)Oc3ccccc3)CC2)nc1` (stereo not drawn) [Example 103, phenyl 4-{[(5-carbamoylpyridin-2-yl)formamido](phenyl)methyl}piperidine-1-carboxylate], the IC50 is 10000 nM.

With `O=C(NC(c1ccccc1)C1CCN(C(=O)Oc2ccccc2)CC1)c1ccc(Cl)c(F)c1` (stereo not drawn) [Example 53, phenyl 4-{[(4-chloro-3-fluorophenyl)formamido](phenyl)methyl}piperidine-1-carboxylate], the IC50 is 20 nM.
